PubChem BioAssay AID248 (DTP/NCI, 2004)
Toxic doses and inconclusive results are not listed. Cut-off read from the data, not from the text of the source: active = T/C of 150% or more; inactive = T/C below 125%. Peptide text beside a SMILES is read from it. * marks the point of attachment. Boc = CC(C)(C)OC(=O)*

System: L1210 leukemia ip in BDF1 mice, survival T/C
Assay: NCI In Vivo Anticancer Drug Screen. Data for tumor model L1210 Leukemia (intraperitoneal) in B6D2F1 (BDF1) mice
Conditions: endpoint: mean survival time, higher = longer survival
Outline: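 Antitumor effect is assessed in tumor-bearing animals. Survival in the compound arm is compared with a vehicle-dosed control arm and expressed as their quotient.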

[1] = dose: 25.0 mg/kg/injection, schedule: Q04DX002 (ip), vehicle: saline
[2] = dose: 50.0 mg/kg/injection, schedule: Q04DX002 (ip), vehicle: saline
[3] = dose: 100.0 mg/kg/injection, schedule: Q04DX002 (ip), vehicle: saline
[4] = dose: 100.0 mg/kg/injection, schedule: Q01DX001 (ip), vehicle: carboxymethylcellulose (CMC)
[5] = dose: 200.0 mg/kg/injection, schedule: Q01DX001 (ip), vehicle: carboxymethylcellulose (CMC)
[6] = dose: 400.0 mg/kg/injection, schedule: Q01DX001 (ip), vehicle: carboxymethylcellulose (CMC)
[7] = dose: 100.0 mg/kg/injection, schedule: Q01DX009 (ip), vehicle: saline with Tween-80
[8] = dose: 200.0 mg/kg/injection, schedule: Q01DX009 (ip), vehicle: saline with Tween-80
[9] = dose: 400.0 mg/kg/injection, schedule: Q01DX009 (ip), vehicle: saline with Tween-80
[10] = dose: 100.0 mg/kg/injection, schedule: Q01DX009 (ip), vehicle: Klucel (hydroxypropylcellulose) (HPC)
[11] = dose: 200.0 mg/kg/injection, schedule: Q01DX001 (ip), vehicle: saline
[12] = dose: 200.0 mg/kg/injection, schedule: Q01DX009 (ip), vehicle: Klucel (hydroxypropylcellulose) (HPC)
[13] = dose: 100.0 mg/kg/injection, schedule: Q01DX001 (ip), vehicle: saline with Tween-80
[14] = dose: 100.0 mg/kg/injection, schedule: Q01DX001 (ip), vehicle: Klucel (hydroxypropylcellulose) (HPC)
[15] = dose: 200.0 mg/kg/injection, schedule: Q01DX001 (ip), vehicle: Klucel (hydroxypropylcellulose) (HPC)
[16] = dose: 75.0 mg/kg/injection, schedule: Q01DX001 (ip), vehicle: saline
[17] = dose: 100.0 mg/kg/injection, schedule: Q01DX001 (ip), vehicle: saline

Measured: T/C

N#C/C(=C\c1cccn1Cc1cc2ccccc2c2ccccc12)C(N)=O
inactive: [1] 105 % of control | [2] 108 % of control | [3] 119 % of control

CC(C)=CCC/C(C)=C/CNc1ncnc2c1ncn2C1OC(CO)C(O)C1O (centres undefined)
inactive: dose: 100.0 mg/kg/injection, schedule: Q01DX005 (ip), vehicle: saline 95 % of control | dose: 200.0 mg/kg/injection, schedule: Q01DX005 (ip), vehicle: saline 94 % of control

N#Cc1ccnc2ccccc12
inactive: [4] 97 % of control | [5] 97 % of control | [6] 98 % of control

O=C(C1CC=CCC1)N1CCCC1 (centres undefined)
inactive: [3] 101 % of control | dose: 200.0 mg/kg/injection, schedule: Q04DX002 (ip), vehicle: saline 104 % of control | dose: 400.0 mg/kg/injection, schedule: Q04DX002 (ip), vehicle: saline 104 % of control

CCOC(=O)c1cc2ccccc2n1-c1ccccc1
inactive: [7] 111 % of control | [8] 104 % of control | [9] 104 % of control

O=C(O)CCCl
inactive: dose: 50.0 mg/kg/injection, schedule: Q01DX001 (ip), vehicle: saline 90 % of control | dose: 50.0 mg/kg/injection, schedule: Q01DX009 (ip), vehicle: Klucel (hydroxypropylcellulose) (HPC) 98 % of control | [10] 92 % of control | dose: 100.0 mg/kg/injection, schedule: Q04DX003 (ip), vehicle: saline 104 % of control | [11] 89 % of control | [12] 92 % of control | dose: 200.0 mg/kg/injection, schedule: Q04DX003 (ip), vehicle: saline 98 % of control

C=CCN(CC=C)/N=N/c1[nH]ncc1C(=O)OCC
inactive: [13] 100 % of control | [7] 106 % of control | dose: 200.0 mg/kg/injection, schedule: Q01DX001 (ip), vehicle: saline with Tween-80 92 % of control | [8] 100 % of control | dose: 400.0 mg/kg/injection, schedule: Q01DX001 (ip), vehicle: saline with Tween-80 101 % of control | [9] 104 % of control

O=c1[nH]c(NCCCCc2ccccc2)c(Br)c(=O)[nH]1
inactive: dose: 25.0 mg/kg/injection, schedule: Q01DX001 (ip), vehicle: saline with Tween-80 98 % of control | dose: 50.0 mg/kg/injection, schedule: Q01DX001 (ip), vehicle: saline with Tween-80 97 % of control | [13] 98 % of control

CCCCS(=O)(=O)N(CC)CC
inactive: dose: 100.0 mg/kg/injection, schedule: Q01DX009 (ip), vehicle: carboxymethylcellulose (CMC) 109 % of control | dose: 200.0 mg/kg/injection, schedule: Q01DX009 (ip), vehicle: carboxymethylcellulose (CMC) 96 % of control

O=C(O)C1CC(c2ccccc2)OC1=O (centres undefined)
inactive: dose: 100.0 mg/kg/injection, schedule: Q01DX009 (ip), vehicle: gum acacia 101 % of control | dose: 100.0 mg/kg/injection, schedule: Q04DX003 (ip), vehicle: gum acacia 98 % of control | dose: 200.0 mg/kg/injection, schedule: Q01DX009 (ip), vehicle: gum acacia 89 % of control | dose: 200.0 mg/kg/injection, schedule: Q04DX003 (ip), vehicle: gum acacia 93 % of control | dose: 400.0 mg/kg/injection, schedule: Q01DX009 (ip), vehicle: gum acacia 106 % of control | dose: 400.0 mg/kg/injection, schedule: Q04DX003 (ip), vehicle: gum acacia 91 % of control

O=C1c2ccccc2C(=O)N1c1cc([N+](=O)[O-])cc([N+](=O)[O-])c1O
inactive: [14] 98 % of control | [15] 95 % of control | dose: 400.0 mg/kg/injection, schedule: Q01DX001 (ip), vehicle: Klucel (hydroxypropylcellulose) (HPC) 88 % of control

CCC(CC)C1CC[N-]CC1.CCC(CC)C1CC[N-]CC1.N#C[S-].N#C[S-].[Cu]
inactive: [16] 123 % of control

CC(O)C1OC1C(C)O (centres undefined)
inactive: [1] 93 % of control | [2] 101 % of control | [3] 112 % of control

C[N+](C)(C)C.Cl[Br-]Br
inactive: dose: 6.25 mg/kg/injection, schedule: Q01DX009 (ip), vehicle: alcohol 95 % of control | dose: 12.5 mg/kg/injection, schedule: Q01DX009 (ip), vehicle: alcohol 89 % of control

CCCC1(c2ccccc2)C(C#N)C(=O)NC(=O)C1C#N (centres undefined)
inactive: [17] 101 % of control | [11] 97 % of control

FC(F)(F)c1nn[nH]n1
inactive: dose: 100.0 mg/kg/injection, schedule: Q04DX003 (ip), vehicle: saline with Tween-80 101 % of control | dose: 200.0 mg/kg/injection, schedule: Q04DX003 (ip), vehicle: saline with Tween-80 108 % of control | dose: 400.0 mg/kg/injection, schedule: Q04DX003 (ip), vehicle: saline with Tween-80 103 % of control

S=C(Nc1ccccc1)N1CCCCC1
inactive: dose: 50.0 mg/kg/injection, schedule: Q01DX001 (ip), vehicle: carboxymethylcellulose (CMC) 97 % of control | [4] 100 % of control | [5] 97 % of control | [6] 103 % of control

S=P1(c2ccccc2)Nc2ccccc2N1c1ccccc1 (centres undefined)
inactive: dose: 100.0 mg/kg/injection, schedule: Q04DX002 (ip), vehicle: DMSO 114 % of control | dose: 200.0 mg/kg/injection, schedule: Q04DX002 (ip), vehicle: DMSO 86 % of control

Cc1cccc(Cl)c1NC(=O)Oc1ccc2c(C)cc(=O)oc2c1
inactive: [10] 102 % of control | [12] 100 % of control | dose: 400.0 mg/kg/injection, schedule: Q01DX009 (ip), vehicle: Klucel (hydroxypropylcellulose) (HPC) 87 % of control

CC(C1CCC2CCC3CCCC1C32)C1CCC2CCC3CCCC1C32 (centres undefined)
inactive: dose: 100.0 mg/kg/injection, schedule: Q01DX001 (ip), vehicle: other 99 % of control | dose: 200.0 mg/kg/injection, schedule: Q01DX001 (ip), vehicle: other 103 % of control | dose: 400.0 mg/kg/injection, schedule: Q01DX001 (ip), vehicle: other 101 % of control

Cc1ccc(C(Br)S(=O)(=O)c2ccccc2)cc1 (centres undefined)
inactive: dose: 100.0 mg/kg/injection, schedule: Q04DX002 (ip), vehicle: Klucel (hydroxypropylcellulose) (HPC) 97 % of control | dose: 200.0 mg/kg/injection, schedule: Q04DX002 (ip), vehicle: Klucel (hydroxypropylcellulose) (HPC) 86 % of control | dose: 400.0 mg/kg/injection, schedule: Q04DX002 (ip), vehicle: Klucel (hydroxypropylcellulose) (HPC) 111 % of control

CCCCCCCCCCCCCCCC(=O)O[C@@]12C[C@@H](C)[C@@]3(O)[C@@H](C=C(CO)C[C@]4(O)C(=O)C(C)=C[C@@H]34)[C@@H]1C2(C)C
inactive: dose: 0.06 mg/kg/injection, schedule: Q01DX009 (ip), vehicle: saline 97 % of control | dose: 0.13 mg/kg/injection, schedule: Q01DX009 (ip), vehicle: saline 107 % of control | dose: 0.25 mg/kg/injection, schedule: Q01DX009 (ip), vehicle: saline 95 % of control | dose: 0.5 mg/kg/injection, schedule: Q01DX009 (ip), vehicle: saline 101 % of control

COc1cc(C=Nc2ccc3c(c2)OCO3)ccc1OC(=O)c1ccccc1
inactive: dose: 100.0 mg/kg/injection, schedule: Q04DX002 (ip), vehicle: saline with Tween-80 96 % of control | dose: 200.0 mg/kg/injection, schedule: Q04DX002 (ip), vehicle: saline with Tween-80 100 % of control | dose: 400.0 mg/kg/injection, schedule: Q04DX002 (ip), vehicle: saline with Tween-80 93 % of control

Cc1cc(S(=O)(=O)F)ccc1NC(=O)CCc1ccc(N2C(N)=NC(N)=NC2(C)C)cc1
inactive: [14] 98 % of control | [15] 102 % of control

S=C([S][Sn]([c]1ccccc1)([c]1ccccc1)[c]1ccccc1)N1CCOCC1
inactive: dose: 100.0 mg/kg/injection, schedule: Q04DX003 (ip), vehicle: Klucel (hydroxypropylcellulose) (HPC) 100 % of control | dose: 200.0 mg/kg/injection, schedule: Q04DX003 (ip), vehicle: Klucel (hydroxypropylcellulose) (HPC) 96 % of control | dose: 400.0 mg/kg/injection, schedule: Q04DX003 (ip), vehicle: Klucel (hydroxypropylcellulose) (HPC) 94 % of control

COC(=O)CNC(=O)C(CC(C)C)NC(=O)C(CC(C)C)NC(=O)OC(C)(C)C (stereo not drawn) (Boc-Leu-Leu-Gly-OMe; configuration not given here)
inactive: [16] 106 % of control | dose: 150.0 mg/kg/injection, schedule: Q01DX001 (ip), vehicle: saline 98 % of control | dose: 300.0 mg/kg/injection, schedule: Q01DX001 (ip), vehicle: saline 98 % of control

COC1CCN(CCCn2c3ccccc3c3ccc(C(C)=O)cc32)CC1
inactive: [17] 97 % of control | [11] 105 % of control
